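Step 1: Grow cells in 96-well plates. Step 2: Expose to compound for 48 hours at 5 concentrations. Step 3: Interpolate endpoints linearly; if unreached, use highest concentration. The concentration for full growth arrest is given as TGI.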
Columns and labels:
Assay in all cases: growth of human tumour cells (NCI), 48 h
A549 NSCLC = tested on: A549 NSCLC
ACHN renal = tested on: ACHN renal
EKVX NSCLC = tested on: EKVX NSCLC
HL-60(TB) leukemia = tested on: HL-60(TB) leukemia
KM12 colon = tested on: KM12 colon
M14 melanoma = tested on: M14 melanoma
NCI-H226 lung = tested on: NCI-H226 lung
OVCAR-4 ovarian = tested on: OVCAR-4 ovarian
OVCAR-5 ovarian = tested on: OVCAR-5 ovarian
SF-268 CNS = tested on: SF-268 CNS
SK-MEL-2 melanoma = tested on: SK-MEL-2 melanoma
SK-MEL-5 melanoma = tested on: SK-MEL-5 melanoma
SK-OV-3 ovarian = tested on: SK-OV-3 ovarian
UACC-62 melanoma = tested on: UACC-62 melanoma
UACC-257 melanoma = tested on: UACC-257 melanoma
DU-145 prostate = tested on: DU-145 prostate
MDA-MB-231 breast = tested on: MDA-MB-231 breast
NCI/ADR-RES ovarian = tested on: NCI/ADR-RES ovarian
PC-3 prostate = tested on: PC-3 prostate

SMILES	TGI (A549 NSCLC) [µM]	TGI (ACHN renal) [µM]	TGI (EKVX NSCLC) [µM]	TGI (HL-60(TB) leukemia) [µM]	TGI (KM12 colon) [µM]	TGI (M14 melanoma) [µM]	TGI (NCI-H226 lung) [µM]	TGI (OVCAR-4 ovarian) [µM]	TGI (OVCAR-5 ovarian) [µM]	TGI (SF-268 CNS) [µM]	TGI (SK-MEL-2 melanoma) [µM]	TGI (SK-MEL-5 melanoma) [µM]	TGI (SK-OV-3 ovarian) [µM]	TGI (UACC-62 melanoma) [µM]	TGI (UACC-257 melanoma) [µM]	TGI (DU-145 prostate) [µM]	TGI (MDA-MB-231 breast) [µM]	TGI (NCI/ADR-RES ovarian) [µM]	TGI (PC-3 prostate) [µM]
CC(=O)OC1CC2C(C)(C)OC(=O)CC(OC(C)=O)[C@]2(C)C2CCC3(C)C(=CCC3[C@H]3COC(=O)C3)[C@]12C (stereo partly specified)	> 100	> 100	> 100	> 100	> 100	> 100	> 100	> 100	> 100	> 100	> 100	> 100	> 100	> 100	–	–	–	–	–
C[n+]1cc(C(O)c2ccc3c(c2)OCO3)c2ccccc2c1 (stereo unspecified)	> 100	> 100	> 100	–	> 100	91.7	> 100	–	> 100	> 100	96.1	44.2	> 100	> 100	66.5	–	–	–	–
O=C1Nc2c(ccc(Cl)c2I)C1=O	> 100	29	36.8	48.1	65.6	29.4	46.4	31.6	34.3	39.4	27.7	29.5	48.3	33.8	–	–	–	–	–
CC(C)C(=O)/C=C/c1ccc(Br)cc1	65.5	25.4	50.9	41.2	27.5	32.4	–	63.3	27.5	48.4	29.7	26.6	49.6	28	30.8	–	–	–	–
O=C(CSc1nnc(Cc2ccccc2)o1)Nc1ccc([N+](=O)[O-])cc1	> 100	> 100	–	> 100	> 100	> 100	> 100	> 100	> 100	> 100	> 100	> 100	> 100	> 100	> 100	–	–	–	–
O=C1CCCCC(=O)OC2(CCCCC2=O)CC1 (stereo unspecified)	> 100	> 100	–	–	> 100	> 100	> 100	> 100	> 100	> 100	> 100	> 100	> 100	> 100	> 100	> 100	> 100	> 100	> 100
COc1cc2ccc3c4cc(OC)c(OC(C)C)cc4cnc3c2cc1OC	> 100	> 100	> 100	> 100	> 100	> 100	> 100	> 100	> 100	> 100	> 100	> 100	> 100	> 100	> 100	–	–	–	–
O=C(Cc1ccccc1)NN1C(=O)C(Cl)C1c1ccc(O)cc1 (stereo unspecified)	> 100	> 100	> 100	> 100	> 100	> 100	> 100	–	> 100	> 100	> 100	> 100	> 100	> 100	> 100	–	–	–	–
NCCSc1nc2ccccc2c(=O)n1-c1ccccc1	> 100	> 100	> 100	90.7	> 100	> 100	> 100	> 100	> 100	–	> 100	> 100	> 100	> 100	> 100	–	> 100	> 100	> 100
COc1cc(C)c2c(c1C)OC(=O)c1c(C)c(Cl)c(O)c(C=O)c1O2	44.3	35.9	26.4	22	35.1	52	87.6	–	81.8	65.1	–	> 100	65	43.6	61.5	–	–	–	–
COC(=O)OCC1OC(N2C(=O)NC(=O)C(Br)C2N=[N+]=[N-])CC1OC(=O)OC (stereo unspecified)	> 100	> 100	–	–	> 100	> 100	> 100	> 100	> 100	> 100	–	> 100	> 100	> 100	> 100	–	–	–	–
O=C1OC2(OC2c2ccccc2)c2ccccc21 (stereo unspecified)	> 100	> 100	> 100	> 100	> 100	> 100	> 100	–	> 100	> 100	> 100	> 100	> 100	> 100	> 100	–	–	–	–
CCCC(C)NC1=C(NC(C)=O)C(=O)c2ccccc2C1=O (stereo unspecified)	> 100	> 100	> 100	> 100	> 100	> 100	> 100	> 100	–	> 100	> 100	> 100	> 100	> 100	> 100	–	–	–	–
Nn1c(CCCCCCCCc2nnc(COc3ccc(Cl)cc3)n2N)nnc1COc1ccc(Cl)cc1	> 100	> 100	> 100	–	> 100	> 100	> 100	> 100	> 100	> 100	> 100	> 100	> 100	> 100	> 100	> 100	> 100	> 100	> 100
O=C1c2ccccc2CCCCCCCCCCC12OCCCO2	91.9	> 100	–	40.1	> 100	> 100	97.2	> 100	66.8	96.7	68.3	83.8	> 100	> 100	72.7	–	–	–	–
CN1NC(=Nc2ccccc2)Sc2c1cnn(-c1ccccc1)c2=O	> 100	> 100	> 100	> 100	> 100	> 100	–	> 100	–	–	> 100	–	> 100	> 100	> 100	–	–	–	–
COC(=O)[C@@H]1CCCN1CCN1CCC[C@H]1C(=O)OC	> 100	> 100	–	–	> 100	> 100	–	> 100	> 100	> 100	> 100	> 100	> 100	> 100	–	> 100	> 100	> 100	> 100
Oc1cc(C2OCCCO2)cc(O)c1O	> 100	> 100	> 100	> 100	> 100	> 100	> 100	> 100	> 100	> 100	> 100	> 100	> 100	> 100	> 100	–	–	–	–
COC(=O)C1=C2SCc3cccc(c3)CSC3=C(C(=O)OC)SC(=C(S2)S1)S3	> 100	> 100	–	80.9	> 100	> 100	> 100	> 100	–	–	> 100	> 100	> 100	> 100	> 100	> 100	74.9	–	> 100
NC1=NS(=O)(=O)Nc2nc(-c3ccc([N+](=O)[O-])o3)[nH]c21	> 100	30.5	–	4.93	36.1	28.4	–	31.3	35	38.7	30.7	33.4	–	30	–	–	–	–	–
Cc1cn(C(Cc2ccccc2)OCCO)c(=O)[nH]c1=O (stereo unspecified)	> 100	> 100	> 100	–	> 100	> 100	> 100	> 100	> 100	–	> 100	> 100	–	> 100	> 100	> 100	> 100	> 100	> 100
COc1cc2cccc(N=Cc3cccc(OC)c3OC(C)C)c2cc1OC	86.5	> 100	> 100	–	57.2	35.9	–	52.4	> 100	91.4	48.6	53.9	73	45.6	52.4	–	–	–	–
O=C1c2ccc3c4ccccc4n(Cc4ccccc4)c3c2C(=O)N1c1ccccc1	34.9	> 50.5	39.4	> 44.7	30.6	27.9	29.7	23.1	33	40.8	46.5	29.9	> 55.6	31.7	29.9	–	–	–	–
c1cc2nnnn2nc1N1CCCC1	> 100	> 100	–	> 100	> 100	> 100	> 100	> 100	> 100	> 100	> 100	> 100	> 100	> 100	> 100	> 100	> 100	> 100	> 100
COc1ccc(O)cc1	> 100	> 100	> 100	> 100	> 100	> 100	> 100	> 100	> 100	> 100	> 100	> 100	> 100	87.1	> 100	–	–	–	–

— PubChem BioAssay (NCI)
